In patent US6310243A, “Iodinated x-ray contrast media” (Nycomed Imaging AS, priority 1994, dated 2001):

Columns and labels:
Format in all cases: physicochemical
[1] = Viscosity in aqueous solution at 20° C.
Description: Table 2 also gives calculated value for viscosity in mPas for concentration of 400 mg I/ml and 300 mg I/ml (at 20° C.).

Water solubility = conditions: noted in Table 2 in place of a concentration
Viscosity at 37° C. = test: Viscosity at 37° C.

For `CC(O)C(=O)Nc1c(I)c(CO)c(I)c(N(CC(O)CO)C(=O)C(C)O)c1I` (stereo not shown) [Example 11, N,N'-Bis(2-hydroxypropionyl)-N-(2,3-dihydroxypropyl)-3,5-diamino-2,4,6-triiodobenzylalcohol], which “Viscosity 20° C.” value ([1]; 407 mgI/ml) is on record?
Its value is 16 mPas.

For `O=C(Nc1c(I)c(CO)c(I)c(N(CC(O)CO)C(=O)C(O)CO)c1I)C(O)CO` (stereo not shown) [Example 15, N,N'-Bis(2,3-dihydroxypropionyl)-N-(2,3-dihydroxyoronyl)-3,5-diamino-2,4,6-triiodobenzylalcohol], which “Viscosity 20° C.” value ([1]; 348 mgI/ml) is on record?
The value was 7.8 mPas.

And the “Viscosity 20° C.” value ([1]; 446 mgI/ml)?
The value was 22 mPas.

And the “Viscosity 20° C.” value ([1]; 537 mgI/ml)?
Its value is 75 mPas.

With `CN(CC(O)CO)C(=O)c1c(I)c(CO)c(I)c(NC(=O)CO)c1I` (stereo not shown) [Example 44, 5-Hydroxyacetamido-3-hydroxymethyl-N-methyl-N-(2,3-dihydroxypropyl)-2,4,6-triiodobenzamide] as the compound, how does the “Viscosity at 400 mgI/ml (CALCULATED)” value ([1]; 400 mgI/ml, calculated) read?
The value was 10.8 mPas.

And the “Viscosity 20° C.” value ([1]; 481 mgI/ml)?
The value was 24 mPas.

For `OCc1cc(OCC(O)CO)c(I)c(OCC(O)CO)c1I` (stereo not shown) [Example 78, 3,5-Bis-(2,3-dihydroxypropyloxy)-2,4-diiodobenzyl alcohol], which solubility (Water solubility) is on record?
The solubility was “low”.

For `O=C(Nc1c(I)c(CO)c(I)c(NC(=O)C(O)C(O)CO)c1I)C(O)C(O)CO` (stereo not shown) [Example 79, N,N'-Bis-(2,3,4-trihydroxybutanoyl)-3,5-diamino-2,4,6-triiodobenzyl alcohol], which “Viscosity at 350 mgI/ml (CALCULATED)” value (Viscosity at 37° C.) is on record?
The value was 5.9.

What about the “Viscosity 37° C.” value (Viscosity at 37° C.; 379 mgI/ml) of the same compound?
Its value is 6.9.

Which results are given for `O=C(NCC(O)CO)c1c(I)c(CO)c(I)c(NC(=O)C(O)C(O)CO)c1I` (stereo not shown) [Example 80, 5-[N'-(2,3,4-Trihydroxybutanoyl)amino]-3-hydroxymethyl-N-(2,3-dihydroxypropyl)-2,4,6-triiodobenzamide]?
Viscosity at 350 mgI/ml (CALCULATED) (Viscosity at 37° C.): 5.2; Viscosity 37° C. (Viscosity at 37° C.; 444 mgI/ml): 11

Which “Viscosity at 350 mgI/ml (CALCULATED)” value (Viscosity at 37° C.) does the source give for `O=C(NC(CO)C(O)CO)c1c(I)c(CO)c(I)c(NC(=O)C(O)C(O)CO)c1I` (stereo not shown) [Example 81, 5-[N'-(2,3,4-Trihydroxybutanoyl)-amino]-3-hydroxymethyl-N-(1,3,4-trihydroxybut-2-yl)-2,4,6-triiodobenzamide] here?
The value was 6.1.

And the “Viscosity 37° C.” value (Viscosity at 37° C.; 376 mgI/ml)?
Its value is 8.9.
